{
  "source": "patent US6723723B1",
  "about": "“Heterocyclic derivatives as inhibitors of factor Xa” (AstraZeneca, priority 1999, dated 2004)",
  "note": "Counter-ions that a name gives are not always drawn.",
  "data": [
    {"smiles": "O=C(c1ccc(-c2ccncc2)nc1)N1CCN(S(=O)(=O)c2cc3cc(Cl)ccc3[nH]2)CC1", "note": "(as salt: hydrochloride) [Example 1, 1-(5-Chloroindol-2-ylsulphonyl)-4-[6-(4-pyridyl)nicotinoyl]piperazine]", "values": [
      {"measurement": "melting point", "result": "186 to 190", "unit": "°C"}
    ]}
  ]
}
